Values of other authors, collected in patent publication US10888120B2, “Non-tobacco nicotine containing article” (Philip Morris Products S.A., priority 2013, dated 2021).

Settings: "experienced" ENDS users (using ENDS for about 1 year)

SMILES: CN1CCCC1c1cccnc1 (stereo not shown) [nicotine]
- plasma nicotine concentration (Cmax): 10.3 ng/mL
